Data from paper PMC1448180, “Small-molecule and mutational analysis of allosteric Eg5 inhibition by monastrol” (BMC Chemical Biology, 2006).
Positions count from the first letter of the chain named. Where two headings read alike, the source gives them in different places.

How the values were obtained:
human Eg5 = tested on: human Eg5; design: method as in PMID 10542155, PMID 10973989; conditions: cited from earlier work
Klp61F-364H = target: T1, Klp61F-364H (Drosophila melanogaster, UniProt P46863); experiment: ATP hydrolysis by Klp-61F motor domain (NADH-enzyme coupled assay); type: biochemical, D. melanogaster
T1 construct: His6 (C); made in house; host or cells: vector pRSETa
T1 sequence (P46863 1-364): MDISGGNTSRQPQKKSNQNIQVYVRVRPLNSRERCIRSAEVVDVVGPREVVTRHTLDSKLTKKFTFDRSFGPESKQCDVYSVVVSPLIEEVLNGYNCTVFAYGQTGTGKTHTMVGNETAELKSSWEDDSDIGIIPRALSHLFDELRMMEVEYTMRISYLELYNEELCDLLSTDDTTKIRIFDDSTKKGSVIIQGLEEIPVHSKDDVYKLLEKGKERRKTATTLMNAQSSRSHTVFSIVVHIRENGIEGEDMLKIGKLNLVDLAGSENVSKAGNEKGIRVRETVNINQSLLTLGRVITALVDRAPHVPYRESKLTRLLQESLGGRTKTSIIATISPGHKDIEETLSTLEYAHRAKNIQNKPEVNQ
Experimental: Each data point is the average of three independent experiments.
(§1) ATP hydrolysis by recombinantly expressed kinesin motor domains was measured using an NADH-enzyme coupled assay. ATP hydrolysis was measured in KC25 buffer supplemented with 5 μM taxol, 1 mM ATP-KOH (pH 7.0), the appropriate concentration of motor domain, and the appropriate concentrations of taxol-polymerized microtubules.

AB9 cells = experiment: Spindle phenotype of D. rerio cells treated with monastrol; type: cell-based; conditions: data not shown
Source text: (§2) Monastrol binds a hydrophobic pocket between loop 5 and α3 that is poorly conserved among kinesins, resulting in specificity for vertebrate Eg5 homologs. […] Monastrol is known to inhibit human and Xenopus Eg5 [7, 9], but not BimC [27]. To test its effect on D. rerio Eg5 and Klp-61F, we treated AB9 and KC167 cells with monastrol. […] To obtain unambiguous evidence, we cloned the motor domain of Klp-61F and subjected the recombinant protein to ATPase assays in the presence or absence of microtubules.
(§3) Conditions for growing the following cell lines are as described: D. rerio AB9 (37), D. melanogaster KC167 [38], and BS-C-1 green monkey kidney cells. For immunofluorescence microscopy, cells were grown on 12 mm circular coverslips to 30 % confluence, treated medium supplemented with drug and 0.2% DMSO, or a DMSO alone, for 6 hours, fixed with formaldehyde, and stained for DNA and microtubules, as described. D. melanogaster KC167 cells were cultured in Schneider's Drosophila Medium (GIBCO) whereas D. rerio AB9 cells and BS-C-1 green monkey kidney cells were cultured at 37°C in Dulbecco's Minimal medium in the presence of 10 % heat inactivated fetal calf serum.

BS-C-1 cells = experiment: Monoaster formation in tissue culture cells (manual count of mitotic cells); type: cell-based, green monkey; conditions: Chlorocebus sabaeus, BSC-1, 6 h, read-out: Cells: monoaster formation score (drug concentration with roughly equal monastral and bipolar spindles)
Experimental: (§4) Figure 2 Structure-activity relationship of monastrol derivatives. (A) Scheme depicting the Biginelli condensation, a one-pot reaction for preparing monastrol derivatives. […] Each data point is the average of three independent experiments. […] Each cell-based assay was performed in duplicate.
as §3

BimC = tested on: BimC; design: method as in PMID 12525161; conditions: cited from earlier work
hEg5-367H (Y211M) = target: T2, hEg5-367H (Y211M) (Homo sapiens, UniProt P52732, Y211M); experiment: ATP hydrolysis by Eg5 motor domain mutant Y211M; type: biochemical; conditions: Figure 4B; legend: basal ATP hydrolysis; read-out: IC50(μM) of monastrol, (Y211M)
T2 sequence (P52732 1-367 Y211M): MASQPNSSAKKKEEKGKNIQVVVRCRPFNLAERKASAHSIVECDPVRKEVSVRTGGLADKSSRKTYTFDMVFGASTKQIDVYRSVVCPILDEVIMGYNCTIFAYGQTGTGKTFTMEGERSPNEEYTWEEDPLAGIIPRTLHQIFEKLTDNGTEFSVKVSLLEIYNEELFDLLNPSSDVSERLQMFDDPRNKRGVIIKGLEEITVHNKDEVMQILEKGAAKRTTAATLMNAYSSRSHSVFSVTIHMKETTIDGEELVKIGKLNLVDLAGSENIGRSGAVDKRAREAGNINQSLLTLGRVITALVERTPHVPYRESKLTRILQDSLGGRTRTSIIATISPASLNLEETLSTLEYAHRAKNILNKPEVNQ
Source text: Figure 4 Mutagenesis of the monastrol binding site in human Eg5. (A) Design of mutations in the human Eg5 motor domain. Amino acid side chains that are not conserved between Eg5 and conventional kinesin were targeted, either introducing chimeric or rationally designed mutations (asterix for targeted point mutants) to test the contribution of residues to the drug-sensitivity of Eg5. (B) Steady-state enzymatic parameters for engineered human Eg5 motor domain mutants. Steady-state ATP hydrolysis by Eg5 was measured using an NADH-enzyme coupled assay varying the concentration of ATP, microtubules, or monastrol to obtain the microtubule concentration for half-maximal stimulation (K0.5MT), the maximal rate of microtubule-stimulated ATP hydrolysis (kcat), and the concentration of monastrol that inhibits basal ATP hydrolysis by 50 % (IC50), as described.
We used a modified PCR mutagenesis protocol to introduce mutations into hEg5-367H, a plasmid encoding the C-terminally His6-tagged motor domain (amino acid residues 1–367) of human Eg5. […]
as §1

hEg5-367H = target: T3, hEg5-367H (Homo sapiens, UniProt P52732); experiment: ATP hydrolysis by recombinant human Eg5 motor domain (NADH-enzyme coupled assay); type: biochemical
T3 construct: motor domain (amino acid residues 1–367) of human Eg5; His6 (C); made in house
T3 sequence (P52732 1-367): T2 sequence (P52732 1-367 Y211M) with M211Y
Experimental: as §4
We used a modified PCR mutagenesis protocol to introduce mutations into hEg5-367H, a plasmid encoding the C-terminally His6-tagged motor domain (amino acid residues 1–367) of human Eg5. The wild-type and mutant proteins were expressed and purified using Ni-NTA affinity chromatography and concentrated to between 3 and 10 mg/ml protein as described.
as §1

KC167 cells = experiment: Spindle phenotype of Drosophila cells treated with monastrol; type: cell-based, D. melanogaster; conditions: data not shown
Source text: as §2, §3

Xenopus Eg5 = tested on: Xenopus Eg5; design: method as in PMID 10542155, PMID 10973989; conditions: cited from earlier work

## CCOC(=O)C1=C(C)NC(=S)NC1c1cccc(O)c1 (stereo not shown) [Monastrol]
Human Eg5
  Inhibition of human Eg5: inhibit
Klp61F-364H
  Inhibition of microtubule-stimulated ATP hydrolysis by Klp-61F motor domain, in words: weakly inhibited
AB9 cells
  Effect on mitosis in D. rerio cells: mitotic arrest
BS-C-1 cells
  EC50: < 50 µM
BimC
  Inhibition of BimC: not
hEg5-367H (Y211M)
  IC50: 0.8 ± 0.3 µM
hEg5-367H; 500 nM hEg5-367H, KC25 buffer, 1 mM ATP-KOH (pH 7.0), 1 μM taxol-stabilized microtubules, read-out: IC50 (μM), inhibition of ATP hydrolysis by Eg5 motor domain
  IC50: 5.2 ± 0.4 µM
hEg5-367H; wild-type motor domain, Figure 4B, legend: basal ATP hydrolysis, read-out: IC50(μM) of monastrol, hEg5-367H
  IC50: 10 ± 2 µM
KC167 cells
  Effect on spindles in Drosophila cells: normal, bipolar spindles
Xenopus Eg5
  Inhibition of Xenopus Eg5: inhibit
